Results from patent US7598255B2 (Janssen Pharmaceutica NV, priority 2005, dated 2009).
Structures can show the parent of a compound that is named as a salt.

Columns and labels:
rat 5-HT7a receptor = rat 5-HT7a receptor (Rattus norvegicus, UniProt P32305); test: Affinity for 5-HT7 receptor binding sites, radioligand binding with [3H]5-CT; conditions: membranes of HEK-293 cells with rat 5-HT7a, 1 nM [3H]5-CT
Procedure: The affinity of the compounds described in this invention for the 5-HT7 receptor binding site was evaluated by single competition radioligand binding assay. The assay was performed on membranes prepared from HEK-293 cells that had been subjected to stable transfection with the rat 5-HT7a receptor (GB: NM022938). Cells were scraped from the culture plates, suspended in Tris-HCl 50 mM pH 7.5 and collected through centrifugation (1000 rpm for 5 min). The cell pellets were homogenized (Polytron, 15 s, setting 5) in 50 mM Tris-HCl (pH 7.5), 5 mM EDTA. Following centrifugation (15,000 rpm for 25 min), membranes (135 μg protein/mL) were resuspended in the same buffer and incubated for 60 min at RT with 1 nM [^3H]5-CT in the presence of increasing concentration of test compounds. Nonspecific binding was defined in the presence of 10 μM 5-HT. Incubation was stopped by rapid filtration using the cell harvester (Packard). Radioactivity was counted in a TopCount-NXT (Packard). Experiments were conducted in triplicate.

5-HT2B receptor = 5-HT2B receptor (Homo sapiens, UniProt P41595); test: Affinity for 5HT2 receptor binding sites, h5-HT2B, [3H]mesulergine; conditions: CHO h5-HT2B membranes
[1] = target: T1, human recombinant 5-HT2C receptor (Homo sapiens, UniProt P28335); test: Affinity for 5HT2 receptor binding sites, h5-HT2C, [3H]mesulergine; conditions: CHO h5-HT2C membranes
T1 sequence (P28335 33-458): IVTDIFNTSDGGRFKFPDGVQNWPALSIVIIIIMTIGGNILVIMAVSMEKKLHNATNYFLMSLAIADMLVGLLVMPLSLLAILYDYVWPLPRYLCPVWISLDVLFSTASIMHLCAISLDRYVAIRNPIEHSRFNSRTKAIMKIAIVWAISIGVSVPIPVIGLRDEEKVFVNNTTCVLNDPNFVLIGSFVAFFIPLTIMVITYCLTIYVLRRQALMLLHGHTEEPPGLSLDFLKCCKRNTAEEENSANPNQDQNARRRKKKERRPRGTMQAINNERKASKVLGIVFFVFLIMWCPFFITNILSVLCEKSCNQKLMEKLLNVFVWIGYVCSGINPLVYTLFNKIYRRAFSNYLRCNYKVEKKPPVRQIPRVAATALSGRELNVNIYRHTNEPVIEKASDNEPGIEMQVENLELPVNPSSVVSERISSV
Procedure: Sigmoidal inhibition curves were generated and fitted by nonlinear regression analysis (GraphPad Prism).
Receptor binding was performed using the human recombinant 5-HT2A (GB: X57830), 5-HT2B (GB: Z36748) and 5-HT2C (GB: M81778) receptors. The affinity of the compounds for the 3 different human 5-HT2 receptor subtypes was evaluated by competitive radioligand binding assays using [^3H]ketanserin (h5-HT2A) or [^3H]mesulergine (h5-HT2B and h5-HT2C). The assays were performed on membranes prepared from NIH3T3 stably transfected with h5-HT2A or CHO stably transfected with h5-HT2B and h5-HT2C.

5-HT2A receptor = 5-HT2A receptor (Homo sapiens, UniProt P28223); test: Affinity for 5-HT2A receptor binding sites, radioligand binding with [3H]ketanserin; conditions: read-out: Ki 5-HT2A, rat cortex membranes (assay 2) or NIH3T3 h5-HT2A membranes (assay 3), table does not say which

Chain of rat 5-HT7a receptor (P32305 whole entry): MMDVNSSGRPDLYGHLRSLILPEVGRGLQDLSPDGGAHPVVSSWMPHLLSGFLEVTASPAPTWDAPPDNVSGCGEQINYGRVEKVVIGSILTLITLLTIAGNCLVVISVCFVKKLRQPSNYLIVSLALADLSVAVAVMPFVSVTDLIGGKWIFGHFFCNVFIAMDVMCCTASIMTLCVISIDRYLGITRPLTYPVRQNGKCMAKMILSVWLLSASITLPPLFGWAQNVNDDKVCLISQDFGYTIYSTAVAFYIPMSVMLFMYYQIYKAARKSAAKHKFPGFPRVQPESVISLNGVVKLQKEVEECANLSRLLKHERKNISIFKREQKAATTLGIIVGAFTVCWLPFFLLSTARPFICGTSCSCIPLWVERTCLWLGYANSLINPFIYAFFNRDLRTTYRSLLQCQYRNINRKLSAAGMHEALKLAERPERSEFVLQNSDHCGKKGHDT
Chain of 5-HT2B receptor (P41595 whole entry): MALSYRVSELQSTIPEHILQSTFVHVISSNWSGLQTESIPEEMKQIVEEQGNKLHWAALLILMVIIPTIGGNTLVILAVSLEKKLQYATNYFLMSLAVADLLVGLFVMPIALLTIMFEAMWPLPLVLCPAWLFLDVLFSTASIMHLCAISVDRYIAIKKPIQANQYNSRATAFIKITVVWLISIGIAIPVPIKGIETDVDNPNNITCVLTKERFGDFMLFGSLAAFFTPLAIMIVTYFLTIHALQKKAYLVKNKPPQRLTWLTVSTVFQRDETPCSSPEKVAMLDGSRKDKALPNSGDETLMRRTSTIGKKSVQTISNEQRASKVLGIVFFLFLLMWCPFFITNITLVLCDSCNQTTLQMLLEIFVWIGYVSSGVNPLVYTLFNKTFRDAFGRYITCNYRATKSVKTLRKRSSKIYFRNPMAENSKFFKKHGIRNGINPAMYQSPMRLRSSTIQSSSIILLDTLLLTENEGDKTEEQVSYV

`Cc1cc(-c2nc(C(C)C)nc3c2CCNC3)cs1` [Example 88, 2-Isopropyl-4-(5-methyl-thiophen-3-yl)-5,6,7,8-tetrahydro-pyrido[3,4-d]pyrimidine hydrochloride] was tested, and the Ki (rat 5-HT7a receptor) was 0.55 µM, the Ki (5-HT2B receptor) was 0.06 µM and the Ki [1] was 0.185 µM. The Ki (5-HT2A receptor) was 0.013 µM.
Compound `Cc1ccc(-c2nc(C(C)C)nc3c2CCCNC3)cc1` [Example 66, 2-Isopropyl-4-p-tolyl-6,7,8,9-tetrahydro-5H-pyrimido[4,5-c]azepine hydrochloride] has a Ki (rat 5-HT7a receptor) of 0.3 µM, a Ki (5-HT2B receptor) of 0.03 µM and a Ki [1] of 0.145 µM. The Ki (5-HT2A receptor) was 0.008 µM.
`COc1ccc(-c2nc(CC(C)C)nc3c2CNCC3)cc1` [Example 41, 2-Isobutyl-4-(4-methoxy-phenyl)-5,6,7,8-tetrahydro-pyrido[4,3-d]pyrimidine] showed a Ki (rat 5-HT7a receptor) greater than 10 µM, a Ki (5-HT2B receptor) of 5 µM and a Ki [1] of 5 µM. For the same compound, the Ki (5-HT2A receptor) was 2 µM.
`CC(C)c1nc2c(c(-c3ccc(F)cc3)n1)CN(Cc1ccccc1)C2` [Example 106, hydrochloride] gave a Ki (rat 5-HT7a receptor) greater than 10 µM, a Ki (5-HT2B receptor) of 6.3 µM and a Ki [1] greater than 10 µM. It also gave a Ki (5-HT2A receptor) of 0.09 µM.
`CC(C)c1nc2c(c(-c3ccsc3)n1)CCNC2` [Example 89, 2-Isopropyl-4-thiophen-3-yl-5,6,7,8-tetrahydro-pyrido[3,4-d]pyrimidine hydrochloride] showed a Ki (rat 5-HT7a receptor) greater than 10 µM, a Ki (5-HT2B receptor) of 0.04 µM and a Ki [1] of 1.4 µM. For the same compound, the Ki (5-HT2A receptor) was 0.025 µM.
`CC(C)c1nc(-c2ccc(F)c(Cl)c2)c2c(n1)C(C)CN(Cc1ccccc1)C2` (stereo not shown) [Example 93, 6-Benzyl-4-(3-chloro-4-fluoro-phenyl)-2-isopropyl-8-methyl-5,6,7,8-tetrahydro-pyrido[4,3-d]pyrimidine] was tested, and the Ki (rat 5-HT7a receptor) was greater than 10 µM, the Ki (5-HT2B receptor) was greater than 10 µM and the Ki [1] was greater than 10 µM. It also gave a Ki (5-HT2A receptor) greater than 10 µM.
`COc1ccc(-c2nc(C(C)C)nc3c2CCCNC3)cc1` [Example 67, 2-Isopropyl-4-(4-methoxy-phenyl)-6,7,8,9-tetrahydro-5H-pyrimido[4,5-c]azepine] gave a Ki (rat 5-HT7a receptor) of 5.4 µM, a Ki (5-HT2B receptor) of 0.08 µM and a Ki [1] of 0.495 µM. It also gave a Ki (5-HT2A receptor) of 0.056 µM.
`COc1ccc(-c2nc(C(C)C)nc3c2CNCC3)cc1` [Example 30, 2-Isopropyl-4-(4-methoxy-phenyl)-5,6,7,8-tetrahydro-pyrido[4,3-d]pyrimidine] showed a Ki (rat 5-HT7a receptor) greater than 10 µM, a Ki (5-HT2B receptor) of 1 µM and a Ki [1] of 2.5 µM. It also gave a Ki (5-HT2A receptor) of 0.8 µM.
`COc1ccc(-c2nc(Cc3ccccc3)nc3c2CCNC3)cc1` [Example 79, 2-Benzyl-4-(4-methoxy-phenyl)-5,6,7,8-tetrahydro-pyrido[3,4-d]pyrimidine] showed a Ki (rat 5-HT7a receptor) of 0.3 µM, a Ki (5-HT2B receptor) of 0.435 µM and a Ki [1] of 0.9 µM. For the same compound, the Ki (5-HT2A receptor) was 0.115 µM.
With `Cc1cc(-c2nc(C(C)C)nc3c2CCN(Cc2ccccc2)C3)cs1` [Example 86, 7-Benzyl-2-isopropyl-4-(5-methyl-thiophen-3-yl)-5,6,7,8-tetrahydro-pyrido[3,4-d]pyrimidine hydrochloride] the Ki (rat 5-HT7a receptor) was 9 µM, the Ki (5-HT2B receptor) was 4.1 µM and the Ki [1] was greater than 10 µM. The Ki (5-HT2A receptor) was 0.1 µM.
With `c1ccc(Cc2nc3c(c(-c4ccccc4)n2)CCN(Cc2ccccc2)C3)cc1` [Example 72, 2,7-Dibenzyl-4-phenyl-5,6,7,8-tetrahydro-pyrido[3,4-d]pyrimidine] the Ki (rat 5-HT7a receptor) was greater than 10 µM, the Ki (5-HT2B receptor) was greater than 10 µM and the Ki [1] was greater than 10 µM. The Ki (5-HT2A receptor) was 0.13 µM.
Work on `CC(C)c1nc2c(c(-c3ccc(F)cc3)n1)CCC(O)C2` (stereo not shown) [Example 110, 4-(4-Fluoro-phenyl)-2-isopropyl-5,6,7,8-tetrahydro-quinazolin-7-ol] yielded a Ki (rat 5-HT7a receptor) greater than 10 µM, a Ki (5-HT2B receptor) of 1.2 µM and a Ki [1] of 4 µM. It also gave a Ki (5-HT2A receptor) of 0.22 µM.
In the case of `CN1CCc2nc(Cc3ccc(F)cc3)nc(-c3ccc(F)cc3)c2C1` [Example 14, 2-(4-Fluoro-benzyl)-4-(4-fluoro-phenyl)-6-methyl-5,6,7,8-tetrahydro-pyrido[4,3-d]pyrimidine], the Ki (rat 5-HT7a receptor) is reported as greater than 10 µM, the Ki (5-HT2B receptor) is reported as 4 µM and the Ki [1] is reported as 4 µM. For the same compound, the Ki (5-HT2A receptor) was 0.03 µM.
Work on `Cc1ccc(-c2nc(CC(C)C)nc3c2CNCC3)cc1` [Example 38, 2-Isobutyl-4-p-tolyl-5,6,7,8-tetrahydro-pyrido[4,3-d]pyrimidine] yielded a Ki (rat 5-HT7a receptor) greater than 10 µM, a Ki (5-HT2B receptor) of 0.05 µM and a Ki [1] of 0.8 µM. The Ki (5-HT2A receptor) was 0.04 µM.
In the case of `Fc1ccc(-c2nc(Cc3ccccc3)nc3c2CNCC3)cc1` [Example 2, 2-Benzyl-4-(4-fluoro-phenyl)-5,6,7,8-tetrahydro-pyrido[4,3-d]pyrimidine], the Ki (rat 5-HT7a receptor) is reported as greater than 10 µM, the Ki (5-HT2B receptor) is reported as 5 µM and the Ki [1] is reported as 0.51 µM. For the same compound, the Ki (5-HT2A receptor) was 0.02 µM.
Compound `CC(C)Cc1nc2c(c(-c3ccsc3)n1)CNCC2` [Example 34, 2-Isobutyl-4-thiophen-3-yl-5,6,7,8-tetrahydro-pyrido[4,3-d]pyrimidine] has a Ki (rat 5-HT7a receptor) greater than 10 µM, a Ki (5-HT2B receptor) of 0.4 µM and a Ki [1] of 1 µM. The Ki (5-HT2A receptor) was 0.15 µM.
`CC(C)c1nc2c(c(-c3ccc(F)c(F)c3)n1)CNCC2` [Example 24, 4-(3,4-Difluoro-phenyl)-2-isopropyl-5,6,7,8-tetrahydro-pyrido[4,3-d]pyrimidine hydrochloride] gave a Ki (rat 5-HT7a receptor) greater than 10 µM, a Ki (5-HT2B receptor) greater than 10 µM and a Ki [1] greater than 10 µM. The Ki (5-HT2A receptor) was 0.24 µM.
In the case of `CCC(C)c1nc2c(c(-c3cccc(F)c3)n1)CNCC2` (stereo not shown) [Example 43, 2-sec-Butyl-4-(3-fluoro-phenyl)-5,6,7,8-tetrahydro-pyrido[4,3-d]pyrimidine], the Ki (rat 5-HT7a receptor) is reported as greater than 10 µM, the Ki (5-HT2B receptor) is reported as greater than 10 µM and the Ki [1] is reported as greater than 10 µM. For the same compound, the Ki (5-HT2A receptor) was 0.2 µM.
In the case of `CC(C)c1nc2c(c(-c3ccc(F)cc3F)n1)CNCC2` [Example 27, 4-(2,4-Difluoro-phenyl)-2-isopropyl-5,6,7,8-tetrahydro-pyrido[4,3-d]pyrimidine], the Ki (rat 5-HT7a receptor) is reported as greater than 10 µM, the Ki (5-HT2B receptor) is reported as greater than 10 µM and the Ki [1] is reported as greater than 10 µM. It also gave a Ki (5-HT2A receptor) of 0.06 µM.
`Cc1cc(-c2nc(C(C)C)nc3c2CCN(C)C3)cs1` [Example 90, 2-Isopropyl-7-methyl-4-(5-methyl-thiophen-3-yl)-5,6,7,8-tetrahydro-pyrido[3,4-d]pyrimidine hydrochloride] gave a Ki (rat 5-HT7a receptor) of 2.3 µM, a Ki (5-HT2B receptor) of 0.13 µM and a Ki [1] of 1 µM. For the same compound, the Ki (5-HT2A receptor) was 0.017 µM.
Work on `CC(C)c1nc2c(c(-c3ccccc3)n1)CCNC2` [Example 81, 2-Isopropyl-4-phenyl-5,6,7,8-tetrahydro-pyrido[3,4-d]pyrimidine] yielded a Ki (rat 5-HT7a receptor) greater than 10 µM, a Ki (5-HT2B receptor) of 0.45 µM and a Ki [1] of 6 µM. It also gave a Ki (5-HT2A receptor) of 0.025 µM.
Work on `CC(C)c1nc2c(c(-c3ccsc3)n1)CCN(C)C2` [Example 91, 2-Isopropyl-7-methyl-4-thiophen-3-yl-5,6,7,8-tetrahydro-pyrido[3,4-d]pyrimidine hydrochloride] yielded a Ki (rat 5-HT7a receptor) greater than 10 µM, a Ki (5-HT2B receptor) of 0.2 µM and a Ki [1] of 9 µM. The Ki (5-HT2A receptor) was 0.075 µM.
`CC(C)c1nc2c(c(-c3ccccc3)n1)CCCNC2` [Example 68, 2-Isopropyl-4-phenyl-6,7,8,9-tetrahydro-5H-pyrimido[4,5-c]azepine] gave a Ki (rat 5-HT7a receptor) greater than 10 µM, a Ki (5-HT2B receptor) of 0.66 µM and a Ki [1] of 7.1 µM. It also gave a Ki (5-HT2A receptor) of 0.08 µM.
`Fc1ccc(-c2nc(-c3ccccc3)nc3c2CNCC3)cc1` [Example 117, 4-(4-Fluoro-phenyl)-2-phenyl-5,6,7,8-tetrahydro-pyrido[4,3-d]pyrimidine] showed a Ki (rat 5-HT7a receptor) greater than 10 µM, a Ki (5-HT2B receptor) of 1 µM and a Ki [1] of 4 µM. The Ki (5-HT2A receptor) was 0.05 µM.
In the case of `CC(C)c1nc2c(c(-c3ccc(F)cc3)n1)CCCC2` [Example 111, 4-(4-Fluoro-phenyl)-2-isopropyl-5,6,7,8-tetrahydro-quinazoline], the Ki (rat 5-HT7a receptor) is reported as greater than 10 µM, the Ki (5-HT2B receptor) is reported as 3.5 µM and the Ki [1] is reported as greater than 10 µM. It also gave a Ki (5-HT2A receptor) of 0.3 µM.
